Assay results published in BindingDB's records for doi:10.1016/j.bmcl.2004.03.090 (Johnson & Johnson Pharmaceutical Research & Development, 2004).

target: Glycogen synthase kinase-3 beta (Oryctolagus cuniculus); assay: Inhibitory concentration against rabbit glycogen synthase kinase-3 beta using protein phosphatase inhibitor-2 as substrate

First: CCn1cc(C2=C(c3cn(CCCO)c4ncccc34)C(=O)NC2=O)c2cccnc21 [3-(1-Ethyl-1H-pyrrolo[2,3-b]pyridin-3-yl)-4-[1-(3-hydroxy-propyl)-1H-pyrrolo[2,3-b]pyridin-3-yl]-pyrrole-2,5-dione]
Second: O=C1NC(=O)C(c2cn(CCCO)c3ncccc23)=C1c1ccccn1 [3-[1-(3-Hydroxy-propyl)-1H-pyrrolo[2,3-b]pyridin-3-yl]-4-pyridin-2-yl-pyrrole-2,5-dione]
The IC50 of the first is 7.4-fold lower: 65 nM for the first, 480 nM for the second. The first is the more potent here.

Compared with `O=C1NC(=O)C(c2cn(CCCO)c3ncccc23)=C1c1ccc(F)cc1Cl` [3-(2-Chloro-4-fluoro-phenyl)-4-[1-(3-hydroxy-propyl)-1H-pyrrolo[2,3-b]pyridin-3-yl]-pyrrole-2,5-dione], `O=C1NC(=O)C(c2cn(CCCO)c3ncccc23)=C1c1cccc2ccccc12` [3-[1-(3-Hydroxy-propyl)-1H-pyrrolo[2,3-b]pyridin-3-yl]-4-naphthalen-1-yl-pyrrole-2,5-dione] is 5.2-fold higher in IC50: 6 nM for the first, 31 nM for the second. The first is the more potent here.

`COc1ccccc1C1=C(c2cn(CCCNS(N)(=O)=O)c3ncccc23)C(=O)NC1=O` [3-(7-Azaindolyl)-4-arylmaleimide analogue] and `COc1ccccc1C1=C(c2cn(CCCNS(C)(=O)=O)c3ncccc23)C(=O)NC1=O` [N-(3-{3-[4-(2-Methoxy-phenyl)-2,5-dioxo-2,5-dihydro-1H-pyrrol-3-yl]-pyrrolo[2,3-b]pyridin-1-yl}-propyl)-methanesulfonamide] are within 1.5-fold of each other in IC50: 20 nM for the first, 14 nM for the second.

Compound `COc1ccccc1C1=C(c2cn(CCCNC=O)c3ncccc23)C(=O)NC1=O` [N-(3-{3-[4-(2-Methoxy-phenyl)-2,5-dioxo-2,5-dihydro-1H-pyrrol-3-yl]-pyrrolo[2,3-b]pyridin-1-yl}-propyl)-formamide] has an IC50 of 8 nM.
